1 molecule from US20050282781A1, “Compositions of stable bioactive metabolites of docosahexaenoic (DHA) and eicosapentaenoic (EPA) acids” (priority 2004, published 2005) can be followed below.

Assay [1] relates to CS-induced gastric ulceration in albino rats. In words: Chronic stress (foot-shock) induced gastric ulceration. The assay is classed as in vivo. How it is done:
A comparative study of DBPs (1, 2, Scheme-II; 1:1 mixture), EPA and DHA was carried out to determine their relative adaptogenic potency against chronic stress in albino rats. The study is also relevant in view of the projected links of EPA and DHA to mental development in children which is severely retarded by chronic stress.
Rats were randomly assigned to control or stress groups. Those assigned to the stress groups were subjected to 1 hour foot-shock, through a grid floor, every day for 14 days. The duration of each shock (2 mA) and the intervals between the shocks were randomly programmed between 3-5 seconds and 10-110 seconds, respectively, to make the stress unpredictable.
EPA (Aldrich), DHA (Sigma) and DBPs were separately suspended/dissolved in 0.3% carboxymethylcellulose (CMC) in distilled water and administered orally (p.o.) for 14 days, starting on day 1, 60 min. prior to electro-shock. Control animals received only the vehicle in either unstressed or the stressed rats for the same period in a volume of 2 ml/Kg, p.o. Estimations were conducted on day 14, one hour after the last stress procedure and two hours after the last test compound or vehicle was administered.
The three test compounds had, albeit in different extent, dose-related anti-ulcerogenic effect. The efficacy was in the order: DBPs>DHA>EPA (Table 2).

Assay [2] concerns CS-induced alteration of adrenal gland ascorbic acid and corticosterone concentrations and plasma corticosterone level. In words: Chronic stress induced alteration of adrenal ascorbic acid, adrenal corticosterone and plasma corticosterone. The assay is classed as in vivo, albino rats. The procedure: The study is also relevant in view of the projected links of EPA and DHA to mental development in children which is severely retarded by chronic stress. Rats were randomly assigned to control or stress groups. Those assigned to the stress groups were subjected to 1 hour foot-shock, through a grid floor, every day for 14 days. […] Control animals received only the vehicle in either unstressed or the stressed rats for the same period in a volume of 2 ml/Kg, p.o. […] CS caused marked depletion of adrenal gland ascorbic acid and corticosterone concentrations with concomitant increase in plasma corticosterone levels. […] They had no per se effect on the indices of stress investigated (Table 3).

[3] abbreviates: 5 mg/Kg p.o. for 14 days + chronic stress.
Setting [4] is: 10 mg/Kg p.o. for 14 days + chronic stress.
[5] abbreviates: 5 mg/Kg p.o., unstressed rats (per se effect).
The mark [6] stands for this setting: 10 mg/Kg p.o., unstressed rats (per se effect).

Marks after values point to notes of the source that are not given here.

Consider `CC/C=C\C/C=C\C/C=C\C/C=C\C/C=C\CCCC(=O)O` [EPA, cis-5,8,11,14,17-Eicosapentaenoic acid], for which the No. of ulcers in assay [1] (setting [3]) stood at 16.5 ± 3.4; in assay [1] (setting [4]), 14.3 ± 4.4. Moreover, the figures for the Severity of ulcers in assay [1] (setting [3]) and in assay [1] (setting [4]) were 28.3 ± 7.7 and 26.4 ± 6.2, respectively. Also, the “Ulcer incidence (%)” value in assay [1] (setting [3]) is on record as 70%; in assay [1] (setting [4]) it was 60%. The Adrenal ascorbic acid in assay [2] (setting [3]) is on record as 138.5 ± 18.2 μg/100 mg; in assay [2] (setting [5]), 308.8 ± 28.7 μg/100 mg; in assay [2] (setting [4]), 144.2 ± 14.7^b μg/100 mg; in assay [2] (setting [6]), 310.5 ± 26.0 μg/100 mg. For the same molecule, the Adrenal corticosterone in assay [2] (setting [3]) was 3.0 ± 1.4 μg/100 mg; in assay [2] (setting [5]), 5.7 ± 1.4 μg/100 mg; in assay [2] (setting [4]), 2.9 ± 0.7^b μg/100 mg; in assay [2] (setting [6]), 5.2 ± 0.8 μg/100 mg. For the same molecule, the Plasma corticosterone is 17.9 ± 0.9^b μg/dL in assay [2] (setting [3]), 15.0 ± 1.6 µg/dL in assay [2] (setting [5]), 18.3 ± 1.8^b μg/dL in assay [2] (setting [4]) and 15.5 ± 1.1 µg/dL in assay [2] (setting [6]).
